In US20050009924A1 (priority 2003, published 2005):

Assays:
[1] = tested on: hepatitis B virus transfected hepatoma cell lines, HepG 2.2.15 cells; assay: Cytotoxicity assay, 2.2.15 cells; assay type: cell-based, human; conditions: Homo sapiens, HepG2.2.15; 48 h of drug exposure
[2] = MTT relative viability, PhTERT-SEAP (H1299) cells; conditions: human
[3] = tested on: rat glioma C6 cells; assay: Cytotoxicity assay (XTT colorimetric), C6 cells; assay type: cell-based; conditions: Rattus norvegicus, C6; 48 h of drug exposure
[4] = tested on: transcriptional activity of hTERT; assay: SEAP reporter assay of hTERT expression, PhTERT-SEAP (hTERT-BJ1); assay type: cell-based, human
Procedure, shortened: (§1)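 SEAP activity, read as rate of 405 nm absorbance rise with 12 mM p-nitrophenyl phosphate in diethanolamine/MgCl2/homoarginine buffer after 65 °C, 10 min heat inactivation, reports hTERT or CMV promoter activity. G418-selected stable H1299 or hTERT-BJ1 reporter lines were exposed to drug for 24 h.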

[5] = tested on: transcriptional activity of hTERT; assay: SEAP reporter assay of hTERT expression, PhTERT-SEAP (H1299); assay type: cell-based, human
Procedure, shortened: as §1

[6] = MTT relative viability, PhTERT-SEAP (hTERT-BJ1) cells; conditions: human
[7] = tested on: human hepatoma G2 cells; assay: Cytotoxicity assay (XTT colorimetric), Hep G2; assay type: cell-based; conditions: Homo sapiens, HepG2; 48 h of drug exposure
[8] = hTERT-BJ1 cells, stable PhTERT-SEAP reporter clone

## O=C1c2ccccc2C(=O)c2c(NC(=O)[C@@H]3C[C@H]3c3ccccc3)ccc(NC(=O)[C@@H]3C[C@H]3c3ccccc3)c21 (relative stereo) [VI27, 1,4-Bis(trans-2-phenyl-1-cyclopropaneamido)-9,10-anthracenedione]
[1]
  IC50: 19.5 µM
[2]
  viability at 48 h, 1.8 µM: 101 ± 2.4%
  viability at 48 h, 18 µM: 100 ± 4.7%
  viability at 48 h, 189 µM: 94 ± 3.5%
[3]
  IC50: > 20 µM
[4]; 1.8 μM, PhTERT-SEAP (hTERT-BJ1)
  SEAP/vibility: 0.89
[4]; 18 μM, PhTERT-SEAP (hTERT-BJ1)
  SEAP/vibility: 0.99
[4]; 189 μM, PhTERT-SEAP (hTERT-BJ1)
  SEAP/vibility: 0.98
[4]; Homo sapiens, 1.8 μM, PhTERT-SEAP (hTERT-BJ1), read-out: Relative SEAP activity (%)
  activity at 1.8 µM: 92 ± 16.9%
[4]; Homo sapiens, 18 μM, PhTERT-SEAP (hTERT-BJ1), read-out: Relative SEAP activity (%)
  activity at 18 µM: 97 ± 18.2%
[4]; Homo sapiens, 189 μM, PhTERT-SEAP (hTERT-BJ1), read-out: Relative SEAP activity (%)
  activity at 189 µM: 102 ± 16.6%
other
  melting point: 272 to 274 °C
[5]; 1.8 μM, PhTERT-SEAP(hTERT-H1299)
  SEAP/vibility: 0.94
[5]; 18 μM, PhTERT-SEAP(hTERT-H1299)
  SEAP/vibility: 0.93
[5]; 189 μM, PhTERT-SEAP(hTERT-H1299)
  SEAP/vibility: 0.92
[5]; Homo sapiens, NCI-H1299, 1.8 μM, PhTERT-SEAP(hTERT-H1299), read-out: Relative SEAP activity (%)
  activity at 1.8 µM: 95 ± 7.7%
[5]; Homo sapiens, NCI-H1299, 18 μM, PhTERT-SEAP(hTERT-H1299), read-out: Relative SEAP activity (%)
  activity at 18 µM: 93 ± 3.2%
[5]; Homo sapiens, NCI-H1299, 189 μM, PhTERT-SEAP(hTERT-H1299), read-out: Relative SEAP activity (%)
  activity at 189 µM: 87 ± 3.6%
[6]; [8]
  viability at 48 h, 1.8 µM: 92 ± 16.9%
  viability at 48 h, 18 µM: 97 ± 18.2%
  viability at 48 h, 189 µM: 104 ± 10.7%
[7]
  IC50: > 20 µM

## CCNc1cccc2c1C(=O)c1cccc(NCC)c1C2=O [IVa, 1,5-Bis(ethylamino)anthraquinone]
[1]
  IC50: > 20 µM
[2]
  viability at 48 h, 3.3 µM: 106 ± 7.4%
  viability at 48 h, 33 µM: 104 ± 3.7%
  viability at 48 h, 339 µM: 103 ± 6.4%
[3]
  IC50: > 20 µM
[4]; Homo sapiens, 3.3 μM, hTERT-BJ1, read-out: Relative SEAP activity (%)
  activity at 3.3 µM: 94 ± 17.4%
[4]; Homo sapiens, 33 μM, hTERT-BJ1, read-out: Relative SEAP activity (%)
  activity at 33 µM: 96 ± 8.5%
[4]; Homo sapiens, 339 μM, hTERT-BJ1, read-out: Relative SEAP activity (%)
  activity at 339 µM: 66 ± 11.8%
other
  melting point: 193 to 195 °C
[5]; Homo sapiens, NCI-H1299, 3.3 μM, hTERT-H1299, read-out: Relative SEAP activity (%)
  activity at 3.3 µM: 108 ± 6.3%
[5]; Homo sapiens, NCI-H1299, 33 μM, hTERT-H1299, read-out: Relative SEAP activity (%)
  activity at 33 µM: 101 ± 6.8%
[5]; Homo sapiens, NCI-H1299, 339 μM, hTERT-H1299, read-out: Relative SEAP activity (%)
  activity at 339 µM: 95 ± 11%
[6]
  viability at 48 h, 3.3 µM: 100 ± 4.8%
  viability at 48 h, 33 µM: 97 ± 1%
[6]; hTERT-BJ1 cells
  viability at 48 h, 339 µM: 99 ± 3.2%
[7]
  IC50: > 20 µM

## CC(C)Nc1cccc2c1C(=O)c1cccc(NC(C)C)c1C2=O [IVc, 1,5-Bis(isopropylamino)anthraquinone]
[1]
  IC50: 19 µM
[2]
  viability at 48 h, 3.1 µM: 114 ± 7.6%
  viability at 48 h, 31 µM: 111 ± 4.7%
  viability at 48 h, 310 µM: 50 ± 7.5%
[3]
  IC50: > 20 µM
[4]; Homo sapiens, 3.1 μM, hTERT-BJ1, read-out: Relative SEAP activity (%)
  activity at 3.1 µM: 32 ± 18.3%
[4]; Homo sapiens, 31 μM, hTERT-BJ1, read-out: Relative SEAP activity (%)
  activity at 31 µM: 23 ± 20.5%
[4]; Homo sapiens, 310 μM, hTERT-BJ1, read-out: Relative SEAP activity (%)
  activity at 310 µM: -2%
other
  melting point: 170 to 172 °C
[5]; Homo sapiens, NCI-H1299, 3.1 μM, hTERT-H1299, read-out: Relative SEAP activity (%)
  activity at 3.1 µM: 94 ± 4.1%
[5]; Homo sapiens, NCI-H1299, 31 μM, hTERT-H1299, read-out: Relative SEAP activity (%)
  activity at 31 µM: 93 ± 2%
[5]; Homo sapiens, NCI-H1299, 310 μM, hTERT-H1299, read-out: Relative SEAP activity (%)
  activity at 310 µM: 66 ± 4.7%
[6]; hTERT-BJ1 cells
  viability at 48 h, 3.1 µM: 101 ± 4.5%
  viability at 48 h, 31 µM: 93 ± 6.5%
  viability at 48 h, 310 µM: 98 ± 12.9%
[7]
  IC50: 7.64 ± 2.38 µM
